Experimental data as given in ChEMBL document CHEMBL1212717, “A new screening assay for allosteric inhibitors of cSrc” (Nat Chem Biol, 2009).

What was measured:
[1] = target: T1, Proto-oncogene tyrosine-protein kinase Src (Homo sapiens, UniProt P12931); conditions: 2 uM
[2] = target: T2, Mitogen-activated protein kinase 14 (Homo sapiens, UniProt Q16539); conditions: 2 uM
[3] = target: T1, Proto-oncogene tyrosine-protein kinase Src
[4] = target: T2, Mitogen-activated protein kinase 14

T1 sequence (P12931 2-536 limits assumed): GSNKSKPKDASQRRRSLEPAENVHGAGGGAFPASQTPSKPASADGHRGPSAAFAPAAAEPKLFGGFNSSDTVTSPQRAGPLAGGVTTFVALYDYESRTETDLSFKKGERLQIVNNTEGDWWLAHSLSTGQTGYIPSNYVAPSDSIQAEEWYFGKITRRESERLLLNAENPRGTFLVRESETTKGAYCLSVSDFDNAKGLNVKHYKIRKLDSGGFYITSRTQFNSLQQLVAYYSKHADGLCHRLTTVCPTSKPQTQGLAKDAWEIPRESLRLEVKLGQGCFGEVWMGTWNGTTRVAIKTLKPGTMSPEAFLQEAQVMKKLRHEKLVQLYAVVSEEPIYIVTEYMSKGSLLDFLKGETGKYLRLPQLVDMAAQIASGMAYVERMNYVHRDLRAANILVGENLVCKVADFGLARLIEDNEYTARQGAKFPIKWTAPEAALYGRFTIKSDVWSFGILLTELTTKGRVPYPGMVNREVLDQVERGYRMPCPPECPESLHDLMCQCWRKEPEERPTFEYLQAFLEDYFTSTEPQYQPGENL
T2 sequence (Q16539 whole entry): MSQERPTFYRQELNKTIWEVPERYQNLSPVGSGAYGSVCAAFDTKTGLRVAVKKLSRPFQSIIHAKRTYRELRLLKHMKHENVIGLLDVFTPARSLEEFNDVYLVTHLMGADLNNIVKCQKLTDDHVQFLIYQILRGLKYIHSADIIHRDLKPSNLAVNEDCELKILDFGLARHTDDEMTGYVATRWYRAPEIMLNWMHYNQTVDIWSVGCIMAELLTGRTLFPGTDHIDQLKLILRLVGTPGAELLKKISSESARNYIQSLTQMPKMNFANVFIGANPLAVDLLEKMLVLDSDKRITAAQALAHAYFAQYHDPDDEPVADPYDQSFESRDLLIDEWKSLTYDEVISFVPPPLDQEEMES

Row | T1/2 [1] [s] | T1/2 [2] [s] | IC50 [3] | Kd [4] | SMILES
1 | 5.35 | 43.6 | – | – | CC(C)(C)c1cc(NC(=O)Nc2ccc(Cl)cc2)n(-c2cccc(N)c2)n1
2 | – | – | Not Active | Not Active | CC(C)(C)c1cc(NC(=O)Nc2ccc(Cl)cc2)n(-c2c(Cl)cc(C(F)(F)F)cc2Cl)n1
